Like-named read-outs stand apart in the source and are kept apart here.
Columns and labels:
[1] = scale 1 to 100, glucose rated 100, cited from earlier work
healthy people = experiment: Glycemic Index (GI) test, two-hour blood glucose response vs glucose reference; type: in vivo, humans; details: when added to sugar; conclusion of Example 11
Method: This study was conducted by the Human Nutrition Unit at the University of Sydney using internationally recognised GI methodology, which has been validated by results obtained from small experimental studies and large multi-centre research trials. The experimental procedures used in this study were in accordance with international standards for conducting ethical research with humans and were approved by the Human Research Ethics Committee of Sydney University.
Using standard methodology to determine a food's GI value, a portion of the food containing between 10 and 50 grams of available carbohydrate is fed to 10 healthy people the morning after they have fasted for 10-12 hours overnight. A fasting blood sample is first obtained from each person and then the food is consumed, after which additional blood samples are obtained at regular intervals during the next two hours. In this way, it's possible to measure the total increase in blood sugar produced by that food over a two-hour period. […]
For each subject, the concentration of glucose in each of the eight whole blood samples collected from them during each test session was analysed in duplicate using a HemoCue® B-glucose photometric analyser employing a glucose dehydrogenase/mutarotase enzymatic assay (HemoCue AB, Ängelholm, Sweden). […] Therefore, each blood sample was analysed immediately after it was collected. […]

SMILES: OC[C@H]1O[C@@](CO)(O[C@H]2O[C@H](CO)[C@@H](O)[C@H](O)[C@H]2O)[C@@H](O)[C@@H]1O [sucrose]
- glycemic index (GI) [1]: about 65
- glycemic index (GI) ([1]; listed as table sugar): 65

SMILES: O=C[C@H](O)[C@@H](O)[C@@H](O)[C@H](O)CO [galactose]
- effect on the GI of sugar (healthy people): reduces the GI to a low level

SMILES: O=C(CO)[C@@H](O)[C@H](O)[C@H](O)CO [fructose]
- glycemic index (GI) [1]: 23
